Source: PubChem BioAssay AID493102 (Broad Institute, 2011)

system: SK-MEL-5 TRPM1-promoter luciferase reporter, 24 h; test: TRPM1 promoter luciferase signal decrease, dose response, MITF inhibitor project, cell-based, SK-MEL-5, cherry-picked, set 4 (AID 493102);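 note: actives lower the luciferase signal so the potency reflects inhibition of reporter expression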

SMILES	AC50
CCc1ccc(-c2cc(C(=O)Nn3cnnc3)c3ccccc3n2)cc1	12.5 µM
O=[N+]([O-])c1ccc(/C=N/N=C/c2ccc([N+](=O)[O-])o2)o1	9.36 µM
O=C(/C=C\Nc1ccc2c(c1)OCO2)c1ccccn1	2.08 µM
CCOc1cc(/C=C\[N+](=O)[O-])ccc1OCC(=O)N1CCOCC1	7.35 µM
CS(=O)(=O)c1ccc(C(=O)OCC(=O)NCc2cccs2)cc1[N+](=O)[O-]	11.7 µM
Cc1ccccc1C(=O)N1CCN(c2ccc(NC(=O)c3ccc([N+](=O)[O-])o3)cc2)CC1	6.2 µM
Cn1nc([N+](=O)[O-])nc1S(C)(=O)=O	9.2 µM
Cc1cc(C(=O)CN2C(=O)c3ccccc3S2(=O)=O)c(C)n1-c1ccccc1	3.45 µM
COc1ccccc1C(=O)Nc1nc(-c2ccc(S(=O)(=O)N3CCOCC3)cc2)cs1	4.34 µM
Cc1c(N=C2C=CC(=O)c3ccccc32)c(=O)n(-c2ccccc2)n1C	5.26 µM
CCN1CCN(CCCNC(=O)c2ccc3c(c2)NC(=O)/C(=C\c2cccc(C)c2)S3)CC1	9.93 µM
O=C(CCl)N(Cc1cc(=O)[nH]c2ccccc12)c1ccccc1	5.42 µM
O=C(COc1ccc(Cl)cc1Cl)Nc1ccccn1	2.19 µM
CC1CN(N=Cc2ccc([N+](=O)[O-])o2)C(=N)O1 (stereo unspecified)	24.1 µM
Nc1ccc(-c2nc3c(Cl)cc(N)cc3[nH]2)cc1	3.76 µM
N#CC(C#N)=C1C=CC=CN1/C(=C\c1ccco1)C(=O)c1ccc(Cl)cc1	6.85 µM
CCCCC[n+]1ccn(C2=C([O-])c3ccccc3C(=O)/C2=N\S(=O)(=O)c2ccccc2)c1	5.9 µM
CC1=NC(=O)C(N=Nc2cccc(C(=O)O)c2)N1c1ccccc1 (stereo unspecified)	8.62 µM
COc1cc(NC(=O)c2[nH]cnc2C(N)=O)cc(C(=O)Nc2cccc(C(F)(F)F)c2)c1	10.9 µM
COc1ccc2cc3cc(C(=O)NCCc4ccc(OC)c(OC)c4)oc3nc2c1	16.2 µM
O=C(NC1=NCCS1)C1COc2ccccc2O1 (stereo unspecified)	1.7 µM
Cc1cc(NC(=O)c2cncc(Br)c2)ccc1NC(=O)c1cc2ccccc2o1	10.4 µM
Cn1c(=O)c([N+](=O)[O-])c(-n2ccnc2)c2ccccc21	6.6 µM

SMILES	AC50
O=C(Nc1cccc(S(=O)(=O)N2CCCCC2)c1)c1ccc([N+](=O)[O-])o1	11.9 µM
Nc1ccc2c(c1)OC1(CCCC1)O2	11.2 µM
O=C(N/N=C/c1ccc([N+](=O)[O-])s1)c1cccc(Br)c1	4.83 µM
S=C=Nc1cccc(C2(N3CCCCC3)CCCCC2)c1	7.36 µM
COc1cc(OC)cc(-c2oc(=O)c3cc(OC)c(OC)cc3c2C(F)(F)F)c1	12.8 µM
Cc1ccc(N2C(=O)NC(=O)/C(=C/C=C/c3ccco3)C2=O)cc1	5.97 µM
N#CC1=C(c2ccccc2)/C(=C/c2ccccc2)OC1=O	4.25 µM
O=C1NC(=O)C(=Cc2ccc(-c3ccc(Cl)cc3)o2)C(=O)N1	9.2 µM
O=C(CSCC(=O)Nc1ccccc1)N/N=C/c1c(O)ccc2ccccc12	3.33 µM
CC(=O)Nc1nc(C)c(-c2csc(Nc3cccc(C(C)=O)c3)n2)s1	8.38 µM
O=c1c2ccccc2nc(/C=C/c2ccc([N+](=O)[O-])o2)n1-c1ccc(O)cc1	4.45 µM
O=C(CNc1cccc([N+](=O)[O-])c1)N/N=C/c1ccc([N+](=O)[O-])o1	8.63 µM
COc1ccc(C(=O)NC(=O)Nc2cc(C)ccn2)cc1	4.96 µM
Cc1ccc2nc(NC(=O)CCCC(=O)O)sc2c1	12.1 µM
CC(=NNC(=S)N1CCN(c2ccccn2)CC1)c1nccs1	0.681 µM
O=C(/C=C/c1ccc([N+](=O)[O-])s1)N1CCCCC1	4.16 µM
COc1ccccc1N1C(=O)N(C(C)=O)C2C1Nc1ccccc1N2C (stereo unspecified)	10.5 µM
Cc1ccc(Oc2c(C(N)=O)cc([N+](=O)[O-])cc2[N+](=O)[O-])cc1	3.68 µM
COc1ccc(/C=C2\SC(=S)N(CCCC(=O)NNC(=O)c3ccccc3O)C2=O)cc1	1.38 µM
CC1(C)CC(=O)C=C(NC2=CC3OC(c4ccccc4)OCC3OC2=O)C1 (stereo unspecified)	7.71 µM
O=C(CNc1cccc2ccccc12)N/N=C/c1ccc([N+](=O)[O-])o1	5.04 µM
CC(=O)Oc1c(C(=O)c2nnc(C)o2)c(=O)n(Cc2ccccc2)c2ccccc12	6.98 µM
COc1ccc(Br)cc1/C=C/C(=O)c1ccc(NC(C)=O)cc1	4.63 µM

SMILES	AC50
C#CC(=O)N(c1ccc(OC)c(OC)c1)C(C(=O)NC1CCCC1)c1cccs1 (stereo unspecified)	3.31 µM
CCOc1cc(/C=C2/NC(=S)NC2=O)ccc1OCc1ccc([N+](=O)[O-])cc1	8.19 µM
COC(=O)C1=C(C)N(Cc2ccccc2)C(=NCC(C)C)N[C@H]1c1cccc(C(F)(F)F)c1	15 µM
CN(Cc1ccccc1)C1=CC(=[N+]2CCCC2)CC(C)(C)C1	1.55 µM
CC[n+]1c(/C=C/N(C)c2ccccc2)sc2ccc(Cl)cc21	9.07 µM
COC(=O)[C@@H]1C[C@]2(OC(=O)c3ccccc3)C=CC(=O)C[C@@H]2N1C(=O)OCc1ccccc1	14 µM
O=C(CNc1ccc2ccccc2c1)N/N=C/c1ccc([N+](=O)[O-])o1	4.95 µM
CCN1CCCC1CNC(=O)c1ccc2c(c1)NC(=O)/C(=C\c1ccc(OC)c(OC)c1)S2 (stereo unspecified)	13.8 µM
CCNC1=C(Cl)C(=O)c2ccccc2C1=O	3.84 µM
COc1ccc(C(=O)/C(C#N)=N/Nc2ccc([N+](=O)[O-])cc2)cc1	8.26 µM
Cc1cc(C)cc(N2C(=O)NC(=O)/C(=C\c3cccn3-c3ccccc3)C2=O)c1	13.8 µM
Cc1ccccc1OCC(=O)Nc1cccc(C(=O)O)c1	1.05 µM
O=[N+]([O-])c1cc(Cl)cc(/C=N\Nc2ccccn2)c1O	4.49 µM
CC(C)(C)c1ccc(-c2cc(N)n[nH]2)cc1	0.511 µM
COC(=O)c1ccc2c(c1O)C(=O)c1ccccc1C2=O	1.61 µM
C=C1C(=O)C=C[C@]2(C)C[C@@H]3OC(=O)[C@](C)(O)[C@H]3C[C@@H]12	10.3 µM
Cn1nnnc1Sc1ncnc2scc(-c3cccc(F)c3)c12	5.98 µM
CCOC(=O)c1ccc(NC(=O)c2ccc(C)c(S(=O)(=O)N3CCOCC3)c2)cc1	5.36 µM
CN(C)c1cc[n+](CC(=O)c2ccc(-c3ccccc3)cc2)cc1	2.6 µM
O=C(NCc1ccco1)c1nc2c(nnn2Cc2ccccc2Cl)c(=O)[nH]1	14.4 µM
C/C(=N\NC(=O)C(C)Oc1ccc([N+](=O)[O-])cc1)c1ccccn1 (stereo unspecified)	2.39 µM
CC[n+]1c(-c2ccccc2)c2cc(N)ccc2c2ccc(N)cc21	2.42 µM
CCOC(=O)c1ccc(NC2=CC(=O)C(=O)c3ccccc32)cc1	4.3 µM

SMILES	AC50
O=C(CNC(=O)c1ccccc1)N/N=C/c1ccc([N+](=O)[O-])s1	5.34 µM
CCn1c(/C=C/Nc2ccccc2)[n+](CC)c2cc(Cl)c(Cl)cc21	14.5 µM
O=C1/C(=C/c2ccccc2[N+](=O)[O-])COc2ccccc21	9.8 µM
CCOc1cc(/C=C(/C#N)c2ccc(Cl)cc2)cc(Cl)c1OCC(=O)O	5.61 µM
CN1CCN(C2=C(NS(=O)(=O)c3ccccc3)C(=O)c3ccccc3C2=O)CC1	6.9 µM
O=C(Nc1nc(-c2ccccn2)cs1)c1ccc(F)c(S(=O)(=O)N2CCOCC2)c1	5.7 µM
COc1cc(SC)ccc1C(=O)Nc1nc(C)cs1	4.81 µM
COc1ccc(S(=O)(=O)N2CCCCC2)cc1NC(=O)c1ccc([N+](=O)[O-])o1	9.14 µM
COc1ccc(-c2c[n+](CC(=O)OC3CC(C)CCC3C(C)C)c3n2CCC3)cc1 (stereo unspecified)	4.87 µM
COc1ccc(C(=O)/C=C/Nc2ccccn2)cc1	3.72 µM
COc1ccccc1CNCC(O)Cn1c2ccccc2c2ccccc21 (stereo unspecified)	18.7 µM
CC1=NOC(=O)/C1=C\c1ccc(-c2cccc(Cl)c2)o1	5.36 µM
CS(=O)(=O)c1ncc(Cl)c(C(=O)Nc2ccc(N3CCOCC3)cc2)n1	22.8 µM
C/C(=N\NC(=O)Cc1ccc(Cl)cc1)c1ccccn1	4.22 µM
CCCNC(=O)COC(=O)c1ccccc1C(=O)c1ccc(Cl)c([N+](=O)[O-])c1	8.34 µM
COc1cccc2sc(N3CCN(C(=O)c4ccc([N+](=O)[O-])o4)CC3)nc12	7.03 µM
COc1cc(SC)ccc1C(=O)Nc1ncc(C)s1	3.65 µM
C#CC(=O)N(c1ccc(OC)cc1OC)C(C(=O)NC1CCCC1)c1cccs1 (stereo unspecified)	4.73 µM
CCOc1ccc(-c2noc(CCC(=O)O)n2)cc1	2.61 µM
CC(=O)Nc1ccc(Nc2c3ccccc3nc3ccccc23)cc1	4.9 µM
C=C1C(=O)O[C@@H]2[C@H]1[C@@H](OC(=O)/C(C)=C/C)C/C(C)=C\C(=O)/C=C(\C)[C@@H]2O	7.07 µM
O=C(NC1CCCC(C(F)(F)F)C1)c1ccc([N+](=O)[O-])o1 (stereo unspecified)	11.2 µM
O=C(Nc1ccc(N2CCN(C(=O)c3ccc(Cl)cc3)CC2)cc1)c1ccc([N+](=O)[O-])o1	7.32 µM

SMILES	AC50
CN(C)c1nc(-c2ccccn2)nnc1-c1ccccc1	6.17 µM
O=C(Nc1ccc2nc3n(c(=O)c2c1)CCCC3)c1cc([N+](=O)[O-])ccc1F	11.5 µM
CCn1c(C)cc(C(=O)CN2C(=O)c3ccccc3S2(=O)=O)c1C	1.99 µM
CC(=O)c1c(C)oc2c1C(=O)c1ccccc1C2=O	6.68 µM
COc1ccccc1NS(=O)(=O)c1cccc(C(=O)N/N=C/c2ccc([N+](=O)[O-])o2)c1	4.3 µM
Cc1ccc(NC(=O)c2cc(N3C(=O)C=CC3=O)ccc2N2CCOCC2)cc1	11.6 µM
COc1cc(C2C(C#N)=C(N)Oc3cc(N(C)C)ccc32)cc2c1OCO2 (stereo unspecified)	0.601 µM
C#CCCc1ccccc1/C=[N+](/C)[O-]	9.4 µM
CC1CCCCC1NC(=O)/C(C#N)=C/c1ccccc1F (stereo unspecified)	14.4 µM
O=[N+]([O-])c1ccc(/C=N/Nc2ccnc3cc(Cl)ccc23)o1	15.3 µM
O=C(Nc1ccc2oc(-c3cccnc3)nc2c1)c1ccc([N+](=O)[O-])o1	14.2 µM
O=C(N/N=C\c1cc(Br)ccc1O)c1ccc(S(=O)(=O)N2CCCCC2)cc1	1.78 µM
O=C(/C=C/NNC(=O)c1ccccc1)c1ccc([N+](=O)[O-])cc1	9.19 µM
Cc1nc(Sc2nnnn2C)c2c3c(sc2n1)CCC3	4.98 µM
O=C(N/N=C/c1ccccn1)c1cc([N+](=O)[O-])cc([N+](=O)[O-])c1	6.53 µM
CS(=O)(=O)c1nc(-c2ccc(F)cc2)cc(C(F)(F)F)n1	7.2 µM
CCOC(=O)c1c(C)oc2c(F)c(F)c(F)c(F)c2c1=O	2.32 µM
O=C(N/N=C/c1ccc(O)c2ncccc12)c1cccc(Br)c1	7.28 µM
O=C(N/N=C/c1ccc([N+](=O)[O-])o1)c1ccc(O)cc1	5.2 µM
